# In patent US8999984B2, “Macrophage migration inhibitory factor antagonists and methods of using same” (University of Louisville Research Foundation, Inc., priority 2006, dated 2015):
# pIC50: −log10 of the molar value. d = 2'-deoxy (DNA); r = 2'-OH (RNA)
# Assays:
# recombinant MIF (rMIF) = molecular target: T1, recombinant MIF (rMIF) (Homo sapiens, UniProt P14174); test: L-dopachrome methyl ester tautomerase assay; type: biochemical
# T1 construct: made in house
# T1 sequence (P14174 2-115 limits assumed): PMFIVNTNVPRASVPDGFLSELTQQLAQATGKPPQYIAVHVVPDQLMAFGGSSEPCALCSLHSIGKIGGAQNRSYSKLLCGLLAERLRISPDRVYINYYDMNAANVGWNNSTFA
# Experimental: 500 nM recombinant MIF (rMIF) was pre-mixed for either 5 (filled) or 10 (open) minutes with the indicated inhibitor concentrations followed by the addition of 2 mM final concentration of L-dopachrome methyl ester substrate. 5 minutes later OD 475 was measured spectrophotometrically, with tautomerization leading to colorless substrate.
# Dopachrome tautomerase assay. […] MIF catalysis and inhibitory studies can be performed as described (Lubetsky et al., 2002). […] Activity can be determined at room temperature by adding dopachrome methyl ester (0.3 ml) to a cuvette containing 500 nM rMIF (Bernhagen et al., 1994) in 50 mM potassium phosphate buffer, pH 6, 0.5 mM EDTA and 5 minutes later measuring the decrease in absorbance at 475 nm spectrophotometrically. […] Additionally, candidate inhibitors identified in the last section of the present Example can be dissolved in DMSO at various concentrations and added to the cuvette (final concentration of DMSO will be no more than 0.1%) with the MIF 1 minute prior to the addition of the dopachrome substrate.
# HIF-1α [1] = test: CoCl2-induced HIF-1α stabilization in MIA-PaCa pancreatic adenocarcinoma cells (nuclear lysate immunoblot); type: cell-based, human; details: for suppression of HIF-1α, of control: 10 μM
# Experimental: (§1) FIGS. 9A-9C are pictures of immunoblots showing MIF tautomerase inhibitors block HIF-1 stabilization in an MIF-specific manner. […] After 5 hours, nuclear lysates were isolated and subjected to immunoblotting for HIF-1. In FIGS. 9A and 9B, MIA-PaCa pancreatic adenocarcinoma cells were used. In FIG. 9C, MIF+/+ and MIF−/− mouse embryonic fibroblasts were evaluated.
# As noted hereinabove, (see FIG. 4), it has been determined that MIF is necessary for hypoxia and prolyl hydroxylase inhibitor-induced HIF-1αstabilization and subsequent hypoxic adaptation of pancreatic adenocarcinoma cells. It was next tested whether MIF pharmacologic inhibitors were capable of recapitulating the destabilizing effects on HIF-1α we had observed using MIF siRNA (FIG. 4). In addition to testing the newly-determined MIF antagonist 4-iodo-6-phenylpyrimidine (also referred to as “compound #16”), the TI compound identified in the Orita screen (FIG. 8) was also tested.
# VEGF = test: CoCl2-induced VEGF expression and secretion (ELISA); type: cell-based; details: read-out: suppression of PHD inhibitor (CoCl2) induced VEGF
# Source text: It was next tested whether the observed differences in the catalytic inhibitory activities between these two compounds was similarly observed in this biological assay of MIF inhibition. […] Of note, this ˜5 fold difference in biological inhibitory activity closely corresponds to the ˜5 fold difference in enzymatic inhibitory activity that was observed when comparing these two compounds (FIG. 8).
# HIF-1α [2] = test: HIF-1α stabilization in MIF-containing and MIF-deficient mouse embryonic fibroblasts; type: cell-based; details: FIG. 9C
# Experimental: as §1
# Lastly, in order to verify that the effect of #16 on HIF-1α inhibition is through its inhibitory effects on MIF, MIF-containing cells and MIF-deficient cells were tested for inhibitory activity.
# [3] = tested on: A549 human lung adenocarcinoma cells; test: A549 anchorage-independent growth in soft agar; type: cell-based; details: FIG. 11; for inhibition of A549 soft agar growth: 10, 50 or 100 μM, 20 days
# Experimental: FIG. 11 is a graph showing inhibitors of MIF prevent anchorage-independent growth. 10^5 A549 human lung adenocarcinoma cells were plated in soft agar, containing vehicle (0.1% DMSO) or 10, 50 or 100 μM ISO-1 or 4-iodo-6-phenylpyrimidine (CMPD 16). 20 days later, colonies were stained and enumerated. Data are representative of two independent experiments.
# [4] = tested on: A549 human lung adenocarcinoma cells; test: A549 NSCLC xenograft tumor outgrowth; type: in vivo, Balb/c (nu/nu) mice; details: 2 mg intraperitoneally every day; vehicle mice developed lesions beginning at day 16; FIG. 12
# Experimental: FIG. 12 is a graph showing Inhibition of NSCLC tumor growth by the MIF inhibitor 4-iodo-6-phenylpyrimidine. Balb/c (nu/nu mice were injected with 1×10^6 A549 human lung adenocarcinoma cells subcutaneously (4 mice/group). Vehicle or 4-iodo-6-phenylpyrimidine (Cmpd 16; 2 mg) were injected intraperitoneally every day for the course of the study. Tumor growth was monitored by palpation every fourth day as indicated. Results are expressed as percent of tumor free mice/group.
# In a study designed to evaluate the in vivo efficacy of anti-MIF compounds, 4-iodo-6-phenylpyrimidine (compound #16) was tested in a xenograft model of human non-small cell lung cancer (NSCLC) outgrowth.
# [5] = MTD / toxicity study, daily injections for 7 days; type: in vivo; details: daily injections for 7 days of 0.5, 1, 2 and 4 mg (25, 50, 100 and 200 mg/kg)
# Source text: (§2) A study to determine the MTD and in vivo inhibitory activity of compound #16 was also completed. […] In vivo enzyme inhibition by compound #16 was next analyzed. […] Further, the discovery of the present MIF inhibitory compounds of Formula I disclosed herein by the present novel virtual screening and systematic testing methods validates the present approach and experimental design to identify further MIF small molecule inhibitors.
# endogenous liver MIF = molecular target: T2, endogenous liver MIF (Mus musculus, UniProt P34884); test: In vivo inhibition of liver MIF tautomerase activity; design: species or system C57BI/6 mice; details: single bolus injection 50 mg/kg, 6 hours post-injection, FIG. 13, read-out: inhibition of endogenous liver MIF enzyme tautomerase activity
# T2 construct: from tissue; host or cells: mouse liver homogenate
# Experimental: FIG. 13 is a graph showing the MIF inhibitor 4-iodo-6-phenyl pyrimidine inhibits MIF in vivo. C57BI/6 mice were injected with corn oil or 1 mg 4-iodo-6-phenyl pyrimidine (# 16) suspended in corn oil for 6 hours before removal of the livers. After homogenizing tissue, […] total liver protein was assessed for L-dopachrome methyl ester tautomerase activity.
# as §2
# MIF/sCD74 = molecular target: T3, MIF/sCD74 (Homo sapiens, UniProt P14174); test: MIF/MIF receptor (CD74) capture assay; type: binding; details: 0.1 μM antagonist against 0.2 μM biotinylated MIF (maximal inhibition possible 50%); FIG. 14B
# T3 construct: made in house; host or cells: E. coli BL21 (DE3)pLysS (sCD74)
# T3 sequence (P14174 2-115 limits assumed): T1 sequence (P14174 2-115 limits assumed)
# Experimental: FIGS. 14A-14C are a schematic (FIG. 14C) of a MIF/MIF receptor capture assay and graphs of data collected from the assay (FIGS. 14A and 14B) that provides a tool for structure-function studies of MIF muteins and candidate inhibitors. […] FIG. 14A is a graph of data from the assay where CD74 coated plates were pre-incubated with the indicated concentrations of native MIF (MIF), denatured MIF or P1G MIF followed by the addition of 0.2 μM biotin-hrMIF. FIG. 14B is a graph of data from the assay where 1.0 μM of denatured MIF (dMIF), native MIF (MIF) or anti-CD74 were pre-incubated with soluble CD74 for 30 mins before adding 0.2 μM biotin-hrMIF. For inhibitors, 0.1 μM ISO-1 or 4-iodo-6-phenyl pyrimidine (Cmp16) were pre-incubated for 30 mins with 0.2 μM biotin-hrMIF before adding mixture to CD74 coated plate. In both FIGS. 14A and 14B, plates were developed 2 hours later by incubating Streptavidin-AP followed by PnPP and measurement at OD405.
# As previously noted, the ability of small molecule antagonists to block MIFs biological functions requires the blockade of MIF binding to its cell surface receptor (Meyer-Siegler et al., 2006). […]
# 96 well plates can be coated with 60 μl/well of purified, soluble CD74 (CD74^73-232) at 0.1 mg/ml and incubated at 4° C. overnight. […] After washing, 60 μl/well of PNPP (Sigma) is added and allowed to develop in the dark until being read at 405 nm.
# HIF-1α [6] = test: Total HIF-1α ELISA, CoCl2-induced HIF stabilization; type: cell-based; details: Homo sapiens, compound #16 at 50 μM, read-out: inhibition of CoCl2-induced HIF stabilization, of control
# Source text: Screening of HIF-1α de-stabilization by candidate MIF inhibitors. The presently disclosed discovery that MIF plays a central role in HIF stability was from studies done in pancreatic adenocarcinoma cell lines. […] This cell line can be utilized for large scale testing of candidate MIF antagonists. In order to scale up this in vitro screen, a DuoSet ELISA-based assay to detect total HIF-1α in human cell lysates can be utilized (R & D Systems). […] MIA-Paca-2 cells can be plated at 5×10^5 cells/well in 24 well plates for 16 hours. Media can be replaced with fresh media containing 0.1% DMSO (− control), 50 μM #16 (+ control) and 5, 50 μM concentrations of test inhibitor, all in duplicate wells. After 1 hour, cells can be challenged with 150 μM CoCl2 for an additional 6 hours. After rinsing the cells twice with PBS, supplied kit lysis buffer can be used to lyse the cells following manufacturer's directions. Prior coating and blocking of HIF-1α capture antibody can be performed according to instructions and diluted cell lysates can be assayed on the HIF-1α ELISA plates.
# MIF = MIF depletion by siRNA in MIA-Paca-2 cells (immunoblot); type: cell-based, human; details: FIG. 4A
# Experimental: (§3) Nuclear and cytosolic extracts from MIF-depleted cells were exposed to normoxia, anoxia (FIG. 4A) or hypoxia (FIG. 4B) and immunoblotted for HIF-1α. FIG. 4C is a graph showing real time PCR analysis of VEGF mRNA levels from control and MIF-depleted cells exposed to hypoxia for different times.
# (§4) MIF-specific siRNA was transfected into MIA-Paca-2 cells before being incubated in 0.2% O2 (anoxia) for 16 hours. […] To more thoroughly investigate the requirements for MIF in hypoxia-mediated HIF-1α stabilization, a time course evaluating MIF containing vs. deficient pancreatic adenocarcinoma cells exposed to 1% O2 (hypoxia) was performed.
# HIF-1α [7] = test: Anoxia-induced HIF-1α stabilization in siRNA transfected MIA-Paca-2 cells; type: cell-based, human; details: 0.2% O2 (anoxia) 16 hours; FIG. 4A
# Experimental: as §3, §4
# A549 cells = test: A549 cell migration in collagen coated transwell chambers; type: cell-based, human; details: FIG. 10B
# Experimental: In FIG. 10A, 500 nM rMIF was pre-mixed for 30 seconds with the indicated inhibitor concentrations followed by the addition of 2 mM final concentration of L-dopachrome methyl ester substrate. 5 minutes later OD 475 was measured spectrophotometrically (tautomerization leads to colorless substrate) and resulting data graphed. In FIG. 10B, 2×10^5 A549 cells transfected or pre-incubated with the indicated inhibitor or DMSO were added to the upper chamber of collagen coated transwell chambers. 16 hours later cells in the upper chamber were removed by swabbing and the bottom of the membranes were stained with crystal violet, solubilized, read at OD 570, and resulting data graphed.
molecule,measurement,setting,value
"Ic1cc(-c2ccccc2)ncn1 [compound #16, 4-iodo-6-phenylpyrimidine]",pIC50,"recombinant MIF (rMIF); 500 nM rMIF pre-mixed 5 or 10 min with inhibitor, 2 mM L-dopachrome methyl ester, FIG. 8, read-out: IC50, MIF enzyme (tautomerase) inhibition",~5.30
same,"suppression of HIF-1α, of control",HIF-1α [1]; FIG. 9B,~50%
same,inhibition of CoCl2-induced HIF-1α stabilization,"HIF-1α [1]; 100 μM, pancreatic carcinoma cells, FIG. 9A",completely inhibited
same,difference in biological inhibitory activity (HIF-1α) between #16 and TI,HIF-1α [1]; 4-iodo-6-phenylpyrimidine versus TI,~5 fold
same,inhibition at 50 µM,VEGF,> 80%
same,HIF-1α stabilization block in MIF-containing fibroblasts,HIF-1α [2]; MIF^+/− murine embryonic fibroblasts,potently blocks
same,HIF-1α stabilization in MIF-deficient fibroblasts,HIF-1α [2]; MIF^−/− fibroblasts,unaffected
same,inhibition of A549 soft agar growth,[3],inhibit A549 soft agar growth
same,"potency relative to ISO-1, soft agar growth",[3],5-10 fold
same,tumor outgrowth (tumor free mice),[4],remained tumor free
same,toxicity,[5],no apparent toxicity
same,inhibition at 50 mg/kg,endogenous liver MIF,> 50%
same,inhibition of MIF receptor (CD74) binding,MIF/sCD74,50%
same,inhibition at 50 µM,HIF-1α [6],75 to 90%
"O=c1c(-c2ccc(O)c(O)c2)coc2cc(O)ccc12 [TI, 3′, 4′,7-tryhydroxyisoflavone, reference compound]",MIF inhibitory activity in applicant's assay compared with reported Ki,recombinant MIF (rMIF); TI from two commercial sources,several orders of magnitude weaker than claimed
same,"suppression of HIF-1α, of control",HIF-1α [1]; FIG. 9B,no inhibitory activity
same,inhibition of HIF-1α stabilization,"HIF-1α [1]; 50 μM, FIG. 9B",only slight inhibitory activity
same,inhibition at 50 µM,VEGF,~20%
"MIF siRNA: short interfering RNA (siRNA) oligos designed against human MIF; sense SEQ ID NO:3, antisense SEQ ID NO:4 (sense CCUUCUGGUGGGGAGAAAUTT; antisense AUUUCUCCCCACCAGAAGGTT; sugars from the 5' end r19 d2, backbone not given here)",loss of cytoplasmic MIF expression,MIF,greater than 90%
same,HIF-1α stabilization in nuclei after MIF depletion,HIF-1α [7],completely deficient
"COC(=O)CC1CC(c2ccc(O)cc2)=NO1 (stereo not shown) [ISO-1, S, R-3-(4-hydroxyphenyl)-4,5-dihydro-5-isoxazole acetic acid methyl ester, reference compound]",enzyme inhibition at 10 μM,"recombinant MIF (rMIF); 10 μM, FIG. 10A",completely inactive
same,inhibition of CoCl2-induced HIF-1α stabilization,HIF-1α [1]; concentrations of 100 μM or higher,only moderately effective
same,migration inhibition at 10 μM,A549 cells,completely inactive
same,inhibition of A549 soft agar growth,[3],inhibit A549 soft agar growth
same,inhibition of MIF receptor (CD74) binding,MIF/sCD74,very efficient blocking
